Laboratory results as given in patent publication US20020065219A1, “Water soluble thiazolyl peptide derivatives” (priority 2000, published 2002).
Converted amounts (≈) assume the structure as drawn. Like-named read-outs stand apart in the source and are kept apart here.

Key:
Test in all cases: MIC, broth micro dilution assay (NCCLS)
Format in all cases: cell-based
[1] = tested on: Staphylococcus aureus A15090
[2] = tested on: Streptococcus pneumoniae A28272
[3] = tested on: Enterococcus faecalis A20688
[4] = Mueller-Hinton medium, 35° C., 18 hours
[5] = 50% Mueller-Hinton medium and 50% Todd Hewitt medium, 35° C., 18 hours

| Compound | MIC (μg/mL) against Staphylococcus aureus A15090 [1, 4] [µg/mL] | MIC (μg/mL) against Streptococcus pneumoniae A28272 [2, 5] [µg/mL] | MIC (μg/mL) against Enterococcus faecalis A20688 [3, 4] [µg/mL] | other results |
| --- | --- | --- | --- | --- |
| CO/C(C)=C1/NC(=O)C(C(C)O)NC(=O)c2csc(n2)-c2cc(O)c(-c3nc(C(=O)NC(CN4CCN(CC(=O)O)CC4)C(N)=O)cs3)nc2-c2csc(n2)C2COC(=O)c3c4c5c(cccc5n3O)COC(=O)C(O[C@H]3C[C@](C)(O)[C@H](N(C)C)[C@H](C)O3)C(OC4)C(NC(=O)c3csc1n3)c1nc(cs1)C(=O)N2 (stereo partly drawn) [Example 39] | 1.0 (≈ 0.632 µM) | 0.03 (≈ 0.019 µM) | 1.0 (≈ 0.632 µM) | – |
| CO/C(C)=C1/NC(=O)C(C(C)O)NC(=O)c2csc(n2)-c2cc(O)c(-c3nc(C(=O)NC(CNCCNC(C)=O)C(N)=O)cs3)nc2-c2csc(n2)C2COC(=O)c3c4c5c(cccc5n3O)COC(=O)C(O[C@H]3C[C@](C)(O)[C@H](N(C)C)[C@H](C)O3)C(OC4)C(NC(=O)c3csc1n3)c1nc(cs1)C(=O)N2 (stereo partly drawn) [Example 16] | 1.0 (≈ 0.649 µM) | 0.125 (≈ 0.0812 µM) | 4.0 (≈ 2.6 µM) | – |
| CNC(=O)On1c2c3c4c(cccc41)COC(=O)C(OC1CC(C)(O)C(N(C)C)C(C)O1)C(OC3)C1NC(=O)c3csc(n3)/C(=C(/C)OC)NC(=O)C(C(C)O)NC(=O)c3csc(n3)-c3cc(O)c(-c4nc(C(=O)NC(CN(CCN(C)C)C(=O)NC)C(N)=O)cs4)nc3-c3csc(n3)C(COC2=O)NC(=O)c2csc1n2 (stereo not drawn) [Example 111] | – | – | – | MIC (μg/mL) against Staphylococcus aureus A15090 [1]: 1.0 µg/mL (≈ 0.61 µM); MIC (μg/mL) against Streptococcus pneumoniae A28272 [2]: 0.06 µg/mL (≈ 0.0366 µM); MIC (μg/mL) against Enterococcus faecalis A20688 [3]: 2.0 µg/mL (≈ 1.22 µM) |
| COC(C)=C1NC(=O)C(C(C)O)NC(=O)c2csc(n2)-c2cc(O)c(-c3nc(C(=O)NC(CN4CCC(O)C4)C(N)=O)cs3)nc2-c2csc(n2)C2COC(=O)c3c4c5c(cccc5n3O)COC(=O)C(OC3CC(C)(O)C(N(C)C)C(C)O3)C(OC4)C(NC(=O)c3csc1n3)c1nc(cs1)C(=O)N2 (stereo not drawn) [Example 37] | 0.06 (≈ 0.0394 µM) | 0.007 (≈ 0.00459 µM) | 0.125 (≈ 0.082 µM) | – |
| C/C=C1\NC(=O)C(C(C)O)NC(=O)c2csc(n2)-c2cc(O)c(-c3nc(C(=O)NC(CSCCN(CC)CC)C(N)=O)cs3)nc2-c2csc(n2)C2CSC(=O)c3[nH]c4cccc(c4c3C)COC(=O)C(O)CC(NC(=O)c3csc1n3)c1nc(cs1)C(=O)N2 (stereo not drawn) [Example 102] | – | – | – | MIC ([1]; Staphylococcus aureus, A15090, 18 h, read-out: MIC (μg/mL) against Staphylococcus aureus A15090): 0.125 µg/mL (≈ 0.0922 µM); MIC ([2]; Streptococcus pneumoniae, A28272, 18 h, read-out: MIC (μg/mL) against Streptococcus pneumoniae A28272): 0.03 µg/mL (≈ 0.0221 µM); MIC ([3]; Enterococcus faecalis, A20688, 18 h, read-out: MIC (μg/mL) against Enterococcus faecalis A20688): 0.25 µg/mL (≈ 0.184 µM) |
| COC(C)=C1NC(=O)C(C(C)O)NC(=O)c2csc(n2)-c2cc(O)c(-c3nc(C(=O)NC(CN4CCCC4C(C)O)C(N)=O)cs3)nc2-c2csc(n2)C2COC(=O)c3c4c5c(cccc5n3O)COC(=O)C(OC3CC(C)(O)C(N(C)C)C(C)O3)C(OC4)C(NC(=O)c3csc1n3)c1nc(cs1)C(=O)N2 (stereo not drawn) [Example 88] | 0.007 (≈ 0.00451 µM) | 0.03 (≈ 0.0193 µM) | 0.06 (≈ 0.0386 µM) | – |
| CO/C(C)=C1/NC(=O)C(C(C)O)NC(=O)c2csc(n2)-c2cc(O)c(-c3nc(C(=O)NC(CN4CCN(c5ccccn5)CC4)C(N)=O)cs3)nc2-c2csc(n2)C2COC(=O)c3c4c5c(cccc5n3O)COC(=O)C(O[C@H]3C[C@](C)(O)[C@H](N(C)C)[C@H](C)O3)C(OC4)C(NC(=O)c3csc1n3)c1nc(cs1)C(=O)N2 (stereo partly drawn) [Example 48] | – | – | – | MIC (μg/mL) against Staphylococcus aureus A15090 [1]: 0.125 µg/mL (≈ 0.0781 µM); MIC (μg/mL) against Streptococcus pneumoniae A28272 [2]: 0.03 µg/mL (≈ 0.0187 µM); MIC (μg/mL) against Enterococcus faecalis A20688 [3]: 0.25 µg/mL (≈ 0.156 µM) |
| CO/C(C)=C1/NC(=O)C(C(C)O)NC(=O)c2csc(n2)-c2cc(O)c(-c3nc(C(=O)NC(CN(C)CC(O)C(O)C(O)C(O)CO)C(N)=O)cs3)nc2-c2csc(n2)C2COC(=O)c3c4c5c(cccc5n3O)COC(=O)C(O[C@H]3C[C@](C)(O)[C@H](N(C)C)[C@H](C)O3)C(OC4)C(NC(=O)c3csc1n3)c1nc(cs1)C(=O)N2 (stereo partly drawn) [Example 31] | 0.125 (≈ 0.0766 µM) | 0.125 (≈ 0.0766 µM) | 1.0 (≈ 0.612 µM) | – |
| COC(C)=C1NC(=O)C(C(C)O)NC(=O)c2csc(n2)-c2cc(O)c(-c3nc(C(=O)NC(CN4CCCC4C(O)c4nccn4C)C(N)=O)cs3)nc2-c2csc(n2)C2COC(=O)c3c4c5c(cccc5n3O)COC(=O)C(OC3CC(C)(O)C(N(C)C)C(C)O3)C(OC4)C(NC(=O)c3csc1n3)c1nc(cs1)C(=O)N2 (stereo not drawn) [Example 91] | 0.03 (≈ 0.0185 µM) | 0.015 (≈ 0.00927 µM) | 0.06 (≈ 0.0371 µM) | – |
| CCNCCN(CC)CC(NC(=O)c1csc(-c2nc3c(cc2O)-c2nc(cs2)C(=O)NC(C(C)O)C(=O)N/C(=C(\C)OC)c2nc(cs2)C(=O)NC2c4nc(cs4)C(=O)NC(COC(=O)c4c5c6c(cccc6n4O)COC(=O)C(O[C@H]4C[C@](C)(O)[C@H](N(C)C)[C@H](C)O4)C2OC5)c2nc-3cs2)n1)C(N)=O (stereo partly drawn) [Example 25] | 1.0 (≈ 0.644 µM) | 0.0005 (≈ 0.000322 µM) | 2.0 (≈ 1.29 µM) | – |
| CNCCN(C)CC(NC(=O)c1csc(-c2nc3c(cc2O)-c2nc(cs2)C(=O)NC(C(C)O)C(=O)N/C(=C(\C)OC)c2nc(cs2)C(=O)NC2c4nc(cs4)C(=O)NC(COC(=O)c4c5c6c(cccc6n4O)COC(=O)C(O[C@H]4C[C@](C)(O)[C@H](N(C)C)[C@H](C)O4)C2OC5)c2nc-3cs2)n1)C(N)=O (stereo partly drawn) [Example 23] | 0.06 (≈ 0.0393 µM) | 0.001 (≈ 0.000655 µM) | 0.5 (≈ 0.328 µM) | – |
| CO/C(C)=C1/NC(=O)C(C(C)O)NC(=O)c2csc(n2)-c2cc(O)c(-c3nc(C(=O)NC(CSC(CC(=O)O)C(=O)O)C(N)=O)cs3)nc2-c2csc(n2)C2COC(=O)c3c4c5c(cccc5n3O)COC(=O)C(O[C@H]3C[C@](C)(O)[C@H](N(C)C)[C@H](C)O3)C(OC4)C(NC(=O)c3csc1n3)c1nc(cs1)C(=O)N2 (stereo partly drawn) [Example 42] | 4.0 (≈ 2.52 µM) | 0.25 (≈ 0.157 µM) | 4.0 (≈ 2.52 µM) | – |
| COC(C)=C1NC(=O)C(C(C)O)NC(=O)c2csc(n2)-c2cc(O)c(-c3nc(C(=O)NC(CN(C)C(=O)CCC(=O)O)C(N)=O)cs3)nc2-c2csc(n2)C2COC(=O)c3c4c5c(cccc5n3O)COC(=O)C(OC3CC(C)(O)C(N(C)C)C(C)O3)C(OC4)C(NC(=O)c3csc1n3)c1nc(cs1)C(=O)N2 (stereo not drawn) [Example 106] | 4.0 (≈ 2.55 µM) | 8.0 (≈ 5.1 µM) | 32 (≈ 20.4 µM) | – |
| CO/C(C)=C1/NC(=O)C(C(C)O)NC(=O)c2csc(n2)-c2cc(O)c(-c3nc(C(=O)NC(CSCCS(=O)(=O)O)C(N)=O)cs3)nc2-c2csc(n2)C2COC(=O)c3c4c5c(cccc5n3O)COC(=O)C(O[C@H]3C[C@](C)(O)[C@H](N(C)C)[C@H](C)O3)C(OC4)C(NC(=O)c3csc1n3)c1nc(cs1)C(=O)N2 (stereo partly drawn) [Example 46] | 4.0 (≈ 2.53 µM) | 0.06 (≈ 0.038 µM) | 128 (≈ 81 µM) | – |
| COC(C)=C1NC(=O)C(C(C)O)NC(=O)c2csc(n2)-c2cc(O)c(-c3nc(C(=O)NC(CN4CC5CC4CN5C)C(N)=O)cs3)nc2-c2csc(n2)C2COC(=O)c3c4c5c(cccc5n3O)COC(=O)C(OC3CC(C)(O)C(N(C)C)C(C)O3)C(OC4)C(NC(=O)c3csc1n3)c1nc(cs1)C(=O)N2 (stereo not drawn) [Example 74] | – | – | – | MIC (μg/mL) against Staphylococcus aureus A15090 [1]: 0.5 µg/mL (≈ 0.323 µM); MIC (μg/mL) against Streptococcus pneumoniae A28272 [2]: 0.015 µg/mL (≈ 0.00968 µM); MIC (μg/mL) against Enterococcus faecalis A20688 [3]: 2.0 µg/mL (≈ 1.29 µM) |
| COCC(Cn1ccnc1)SCC(NC(=O)c1csc(-c2nc3c(cc2O)-c2nc(cs2)C(=O)NC(C(C)O)C(=O)NC(=C(C)OC)c2nc(cs2)C(=O)NC2c4nc(cs4)C(=O)NC(COC(=O)c4c5c6c(cccc6n4O)COC(=O)C(OC4CC(C)(O)C(N(C)C)C(C)O4)C2OC5)c2nc-3cs2)n1)C(N)=O (stereo not drawn) [Example 80] | 0.25 (≈ 0.155 µM) | 0.03 (≈ 0.0186 µM) | 0.125 (≈ 0.0776 µM) | – |
| COC(C)=C1NC(=O)C(C(C)O)NC(=O)c2csc(n2)-c2cc(O)c(-c3nc(C(=O)NC(CN4CCC4CO)C(N)=O)cs3)nc2-c2csc(n2)C2COC(=O)c3c4c5c(cccc5n3O)COC(=O)C(OC3CC(C)(O)C(N(C)C)C(C)O3)C(OC4)C(NC(=O)c3csc1n3)c1nc(cs1)C(=O)N2 (stereo not drawn) [Example 84] | – | – | – | MIC (μg/mL) against Staphylococcus aureus A15090 [1]: 0.5 µg/mL (≈ 0.328 µM); MIC (μg/mL) against Streptococcus pneumoniae A28272 [2]: 0.125 µg/mL (≈ 0.082 µM); MIC (μg/mL) against Enterococcus faecalis A20688 [3]: 0.25 µg/mL (≈ 0.164 µM) |
| CO/C(C)=C1/NC(=O)C(C(C)O)NC(=O)c2csc(n2)-c2cc(O)c(-c3nc(C(=O)NC(CN4CCCC4)C(N)=O)cs3)nc2-c2csc(n2)C2COC(=O)c3c4c5c(cccc5n3O)COC(=O)C(O[C@H]3C[C@](C)(O)[C@H](N(C)C)[C@H](C)O3)C(OC4)C(NC(=O)c3csc1n3)c1nc(cs1)C(=O)N2 (stereo partly drawn) [Example 15] | – | – | – | MIC (μg/mL) against Staphylococcus aureus A15090 [1]: 0.06 µg/mL (≈ 0.0398 µM); MIC (μg/mL) against Streptococcus pneumoniae A28272 [2]: 0.015 µg/mL (≈ 0.00994 µM); MIC (μg/mL) against Enterococcus faecalis A20688 [3]: 0.5 µg/mL (≈ 0.331 µM) |
| COC(C)=C1NC(=O)C(C(C)O)NC(=O)c2csc(n2)-c2cc(O)c(-c3nc(C(=O)NC(CNC(CO)Cc4c[nH]cn4)C(N)=O)cs3)nc2-c2csc(n2)C2COC(=O)c3c4c5c(cccc5n3O)COC(=O)C(OC3CC(C)(O)C(N(C)C)C(C)O3)C(OC4)C(NC(=O)c3csc1n3)c1nc(cs1)C(=O)N2 (stereo not drawn) [Example 67] | 2.0 (≈ 1.27 µM) | 1.0 (≈ 0.633 µM) | 8.0 (≈ 5.07 µM) | – |
| CO/C(C)=C1/NC(=O)C(C(C)O)NC(=O)c2csc(n2)-c2cc(O)c(-c3nc(C(=O)NC(CN(C)CCO)C(N)=O)cs3)nc2-c2csc(n2)C2COC(=O)c3[nH]c4cccc5c4c3COC(C(O[C@H]3C[C@](C)(O)[C@H](N(C)C)[C@H](C)O3)C(=O)OC5)C(NC(=O)c3csc1n3)c1nc(cs1)C(=O)N2 (stereo partly drawn) [Example 92] | 0.125 (≈ 0.0835 µM) | 0.0005 (≈ 0.000334 µM) | 0.125 (≈ 0.0835 µM) | – |
